Measurements as given in US20260325487A1 (BS BIOTECHNA SPOLKA AKCYJNA, priority 2023, published 2026).
Like-named read-outs stand apart in the source and are kept apart here.

Assays:
Assay type in all cases: cell-based
[1] = tested on: NCI-H226; assay: SRB anti-proliferative assay, NCI-H226, molecular combination and nanoparticles, with combination index (Example III); conditions: Homo sapiens
Protocol: (§1) Cells were thawed from ampoules stored in liquid nitrogen and cultured in petri dishes in the appropriate culture medium according to Table 16, in a humidified 5% CO2 atmosphere at 37° C. Cells were passaged twice weekly using EDTA-Trypsin solution, pH 8, as a separating agent. Counted cells with a viability of at least 90% as assessed with Trypan-Blue solution were used for anti-proliferation assays.
(§2) Twenty-four hours before the addition of the test compounds/combinations, cells were seeded into 384-well plates at 50 μL/well and a density of 10^3 cells/well, in the appropriate culture medium. […] Solutions of the compounds were diluted in the test medium—RPMI-1640 and Opti-MEM in a 1:1 ratio, and the medium was supplemented with 2 mM glutamine and 5% fetal bovine serum FBS.
(§3) After 72 h, colourimetric assessment of cell growth was performed by SRB. […] Unbound dye was removed by washing the plates (4×) in 1% (v/v) acetic acid, and protein-bound dye was extracted with 10 mM unbuffered Tris base and the optical density (A=540 nm) was determined in a BioTek Synergy H4 Hybrid computer microplate reader (BioTek Instruments USA). The entire washing/staining procedure was performed using a BioTek EL406 washing station (BioTek Instruments USA). The raw absorbance results were analysed in Microsoft Excel software using the formula:
(§4) [formula] • Where: • % Zahlnh-inhibition of proliferation • Am—absorbance of wells without cells (medium) • Ak—absorbance of control wells (cells treated with pure culture medium) • Ap—absorbance of wells treated with compounds
(§5) Each compound at the indicated concentrations was tested in triplicate in one experiment. Each experiment was repeated three times. Data analysis was supplemented with synergy assessment using CalcuSyn software. […] A CI value below 0.8 indicates synergism, 0.8-1.2 an additive effect, above 1.2 an antagonism.

[2] = tested on: A172; assay: SRB anti-proliferative assay, A172, molecular combination and nanoparticles, with combination index (Example III); conditions: Homo sapiens, A 172, 72 h, read-out: Zah. (inhibition of proliferation)
Protocol: as §1, §2, §3, §4, §5

[3] = tested on: SK-MES-1; assay: SRB anti-proliferative assay, SK-MES-1, with CalcuSyn combination index (Example 1); conditions: Homo sapiens, SK-MES-1, 72 h, read-out: Zah. (inhibition of proliferation)
Protocol: as §1, with “in” for “in the”, “2,” for “16,”, “8.” for “8, as a separating agent.”, “anti-proliferative” for “anti-proliferation”
Twenty-four hours before the addition of the test compounds/combinations, cells were seeded into 384-well plates at 50 μL/well and a density of 10^3 cells/well, in the appropriate culture medium.
as §3, with “Solutions of the compounds were diluted in the test medium-RPMI-1640 and Opti-MEM in a 1:1 ratio, and the medium was supplemented with 2 mM glutamine and 5% fetal bovine serum FBS. After” for “After”
as §4, §5

[4] = tested on: Hs683; assay: SRB anti-proliferative assay, Hs683, molecular combination and nanoparticles, with combination index (Example III); conditions: Homo sapiens, Hs 683, 72 h, read-out: Zah. (inhibition of proliferation)
Protocol: as §1, §2, §3, §4, §5

`C=CCNC1=C2C[C@@H](C)C[C@H](OC)[C@H](O)[C@@H](C)/C=C(\C)[C@H](OC(N)=O)[C@@H](OC)/C=C\C=C(/C)C(=O)NC(=CC1=O)C2=O` [17AAG, 17-AAG (tanespimycin)] gave an inhibition at 0.0032 µM ([1]; NCI-H226, read-out: Inhibition of cell proliferation (Zah.), single agent, 3.2 nM) of 10.4%, an inhibition at 0.01 µM ([1]; NCI-H226, read-out: Inhibition of cell proliferation (Zah.), single agent, 10 nM) of 17.2% and an inhibition at 0.0316 µM ([1]; NCI-H226, read-out: Inhibition of cell proliferation (Zah.), single agent, 31.6 nM) of 29.4%. The inhibition at 0.1 µM ([1]; NCI-H226, read-out: Inhibition of cell proliferation (Zah.), single agent, 100 nM) was 51.4%, the inhibition at 0.3163 µM ([1]; NCI-H226, read-out: Inhibition of cell proliferation (Zah.), single agent, 316.3 nM) was 59.1% and the inhibition at 1 µM ([1]; NCI-H226, read-out: Inhibition of cell proliferation (Zah.), single agent, 1000 nM) was 65%. For the same compound, the inhibition at 3.1625 µM ([1]; NCI-H226, read-out: Inhibition of cell proliferation (Zah.), single agent, 3162.5 nM) was 69.5%, the inhibition at 10.0005 µM ([1]; NCI-H226, read-out: Inhibition of cell proliferation (Zah.), single agent, 10000.5 nM) was 68.4% and the inhibition at 0.0032 µM ([1]; NCI-H226, read-out: Zah. (inhibition of cell proliferation), NCI-H226 (Table 35a), compound alone, 3.2 nM) was 10.4%. The inhibition at 0.01 µM ([1]; NCI-H226, read-out: Zah. (inhibition of cell proliferation), NCI-H226 (Table 35a), compound alone, 10 nM) was 17.2%, the inhibition at 0.0316 µM ([1]; NCI-H226, read-out: Zah. (inhibition of cell proliferation), NCI-H226 (Table 35a), compound alone, 31.6 nM) was 29.4% and the inhibition at 0.1 µM ([1]; NCI-H226, read-out: Zah. (inhibition of cell proliferation), NCI-H226 (Table 35a), compound alone, 100 nM) was 51.4%. The inhibition at 0.3163 µM ([1]; NCI-H226, read-out: Zah. (inhibition of cell proliferation), NCI-H226 (Table 35a), compound alone, 316.3 nM) was 59.1%, the inhibition at 1 µM ([1]; NCI-H226, read-out: Zah. (inhibition of cell proliferation), NCI-H226 (Table 35a), compound alone, 1000 nM) was 65% and the inhibition at 3.1625 µM ([1]; NCI-H226, read-out: Zah. (inhibition of cell proliferation), NCI-H226 (Table 35a), compound alone, 3162.5 nM) was 69.5%. The inhibition at 10.0005 µM ([1]; NCI-H226, read-out: Zah. (inhibition of cell proliferation), NCI-H226 (Table 35a), compound alone, 10000.5 nM) was 68.4%, the inhibition at 0.0032 µM ([1]; NCI-H226, read-out: Zah. (inhibition of cell proliferation), NCI-H226, compound alone, 3.2 nM) was -6.6% and the inhibition at 0.01 µM ([1]; NCI-H226, read-out: Zah. (inhibition of cell proliferation), NCI-H226, compound alone, 10 nM) was -4.6%. The inhibition at 0.0316 µM ([1]; NCI-H226, read-out: Zah. (inhibition of cell proliferation), NCI-H226, compound alone, 31.6 nM) was 30.6%, the inhibition at 0.1 µM ([1]; NCI-H226, read-out: Zah. (inhibition of cell proliferation), NCI-H226, compound alone, 100 nM) was 44.7% and the inhibition at 0.3163 µM ([1]; NCI-H226, read-out: Zah. (inhibition of cell proliferation), NCI-H226, compound alone, 316.3 nM) was 49.3%. For the same compound, the inhibition at 1 µM ([1]; NCI-H226, read-out: Zah. (inhibition of cell proliferation), NCI-H226, compound alone, 1000 nM) was 59%, the inhibition at 3.1625 µM ([1]; NCI-H226, read-out: Zah. (inhibition of cell proliferation), NCI-H226, compound alone, 3162.5 nM) was 63.5% and the inhibition at 10.0005 µM ([1]; NCI-H226, read-out: Zah. (inhibition of cell proliferation), NCI-H226, compound alone, 10000.5 nM) was 61.4%. It also gave an inhibition at 0.0003163 µM [2] of 6%, an inhibition at 0.001 µM [2] of 15.7% and an inhibition at 0.0032 µM [2] of 4.7%. It also gave an inhibition at 0.01 µM [2] of 7.8%, an inhibition at 0.0316 µM [2] of 20.1% and an inhibition at 0.1 µM [2] of 37.4%. For the same compound, the inhibition at 0.3163 µM [2] was 64.6%, the inhibition at 1 µM [2] was 81.1% and the inhibition at 0.0031 µM [3] was 9.2%. The inhibition at 0.01 µM [3] was 12.7%, the inhibition at 0.03 µM [3] was 55.1% and the inhibition at 0.1 µM [3] was 80%. The inhibition at 0.3124 µM [3] was 85.2%, the inhibition at 1 µM [3] was 86.5% and the inhibition at 3.1392 µM [3] was 86.9%. The inhibition at 10 µM [3] was 87%, the inhibition at 0.0003163 µM [4] was 8.3% and the inhibition at 0.001 µM [4] was 50.3%. The inhibition at 0.0032 µM [4] was 63%, the inhibition at 0.01 µM [4] was 93.9% and the inhibition at 0.0316 µM [4] was 79.2%. It also gave an inhibition at 0.1 µM [4] of 82%, an inhibition at 0.3163 µM [4] of 91% and an inhibition at 1 µM [4] of 94.3%.
